# Tests used:
# [1] = in vitro; settings: human
SMILES,melting point [°C],CC50 ([1]; Picorana CC50) [µg/mL],CC50 [1] [µg/mL]
"CCC(C)(C)c1cc(C(C)(C)CC)c2c(c1)C1(O)C(=O)c3ccccc3C1(O)O2 (stereo not drawn) [Example 28, 6,8-Bis-(1,1-dimethyl-propyl)-4b,9b-dihydroxy-4b,9b-dihydro-5-oxa-indeno[2,1-a]inden-10-one]",195 to 222,9.2,
"CC(C)(C)c1cccc2c1OC1(O)c3ccccc3C(=O)C21O (stereo not drawn) [Example 21, 6-tert-Butyl-4b,9b-dihydroxy-4bH-benzo[d]indeno[1,2-b]furan-10(9bH)-one]",148 to 152,32.1,
"CC(=O)OC12Oc3c(C(C)(C)C)cc(C(C)(C)C)cc3C1(OC(C)=O)C(=O)c1ccccc12 (stereo not drawn) [Example 25, 6,8-di-tert-Butyl-10-oxo-9b,10-dihydro-4bH-benzo[d]indeno[1,2-b]furane-4b,9b-diyl diacetate]",242 to 247,> 50,
"CCc1ccc2c(c1)OC1(O)c3ccc(O)cc3C(=O)C21O (stereo not drawn) [Example 52, 7-Ethyl-2,4b,9b-trihydroxy-4b,9b-dihydro-5-oxa-indeno[2,1-a]inden-10-one]",208 to 213,> 50,
"O=C1c2ccccc2C2(O)Oc3ccc([N+](=O)[O-])cc3C12O (stereo not drawn) [Example 14, 4b,9b-Dihydroxy-8-nitro-4bH-benzo[d]indeno[1,2-b]furan-10(9bH)-one]",206 to 207,> 50,
"Cc1cc2c(c(C)c1C)C1(O)C(=O)c3ccccc3C1(O)O2 (stereo not drawn) [Example 22, 4b,9b-Dihydroxy-7,8,9-trimethyl-4bH-benzo[d]indeno[1,2-b]furan-10(9bH)-one]",212 to 214,8.01,
"CCN(CC)C(=O)OC12Oc3cc(C(C)C)ccc3C1(O)C(=O)c1ccccc12 (stereo not drawn) [Example 40, 9b-Hydroxy-7-isopropyl-10-oxo-9b,10-dihydro-4bH-benzo[d]indeno[1,2-b]furan-4b-yl diethylcarbamate]",127 to 130,44,
"CC(C)c1ccc2c(c1)OC1(O)c3cc(F)c(F)cc3C(=O)C21O (stereo not drawn) [Example 42, 2,3-Difluoro-4b,9b-dihydroxy-7-isopropyl-4bH-benzo[d]indeno[1,2-b]furan-10(9bH)-one]",134 to 136,8.94,
"COc1cc2c(cc1OC)[C@]1(O)Oc3cc(C(C)C)ccc3[C@]1(O)C2=O [Example 81, 4b,9b-Dihydroxy-7-isopropyl-2,3-dimethoxy-4bH-benzo[d]indeno[1,2-b]furan-10(9bH)-one]",127 to 129,8.61,
"CC(C)c1ccc2c(c1)O[C@@]1(O)c3cccc(O)c3C(=O)[C@@]21O [Example 43, 1,4b,9b-Trihydroxy-7-isopropyl-4bH-benzo[d]indeno[1,2-b]furan-10(9bH)-one]",205 to 207,,33.2
"COC(=O)N[C@@]12C(=O)c3ccccc3[C@]1(O)Oc1cc(C(C)C)ccc12 [Example 84, Methyl (4bS,9bS)-4b-hydroxy-7-isopropyl-10-oxo-9b,10-dihydro-4bH-benzo[d]indeno[1,2-b]furan-9b-ylcarbamate]",161 to 163,> 50,
CC(=O)OC12Oc3cc(C(C)C)ccc3C1(OC(C)=O)C(=O)c1c([N+](=O)[O-])cccc12 (stereo not drawn) [Example 53],201 to 203,45.6,
"CC(C)c1ccc2c(c1)OC1(OCCO)c3ccccc3C(=O)C21O (stereo not drawn) [Example 79, 9b-Hydroxy-4b-(2-hydroxyethoxy)-7-isopropyl-4bH-benzo[d]indeno[1,2-b]furan-10(9bH)-one]",100 to 105,10.4,
"CCOC(=O)Cc1cc(OC)c2c(c1)C1(O)C(=O)c3ccccc3C1(O)O2 (stereo not drawn) [Example 3, Ethyl 2-(4b,9b-dihydroxy-6-methoxy-10-oxo-9b,10-dihydro-4bH-benzo[d]indeno[1,2-b]furane-8-yl)acetate]",133 to 136,> 50,
"O=C1c2ccccc2C2(O)Oc3c(-c4ccccc4)cccc3C12O (stereo not drawn) [Example 13, 4b,9b-Dihydroxy-6-phenyl-4bH-benzo[d]indeno[1,2-b]furan-10(9bH)-one]",182 to 183,8.08,
"CCc1ccc2c(c1)OC1(O)c3ccccc3C(=O)C21O (stereo not drawn) [Example 9, 7-Ethyl-4b,9b-dihydroxy-4bH-benzo[d]indeno[1,2-b]furan-10(9bH)-one]",168 to 169,18,
"CCCCCCCCCCCCCCCc1ccc2c(c1)C1(O)C(=O)c3ccccc3C1(O)O2 (stereo not drawn) [Example 27, 4b,9b-Dihydroxy-8-pentadecyl-4bH-benzo[d]indeno[1,2-b]furan-10(9bH)-one]",105 to 110,43.9,
"CC(C)c1ccc2c(c1)OC1(OC(=O)C(C)(C)C)c3ccccc3C(=O)C21OC(=O)C(C)(C)C (stereo not drawn) [Example 33, 7-Isopropyl-10-oxo-9b,10-dihydro-4bH-benzo[d]indeno[1,2-b]furan-4b,9b-diyl bis(2,2-dimethylpropanoate)]",153 to 157,> 50,

SMILES,melting point [°C],CC50 ([1]; Picorana CC50) [µg/mL],CC50 [1] [µg/mL]
"CC(=O)Nc1cccc2c1C(=O)[C@@]1(NC(C)=O)c3ccc(C(C)C)cc3O[C@@]21O [Example 87, N,N′-((4bS,9bS)-4b-Hydroxy-7-isopropyl-10-oxo-9b,10-dihydro-4bH-benzo[d]indeno[1,2-b]furane-1,9b-diyl)diacetamide]",205 to 207,36.8,
"CCC(C)c1ccc2c(c1)C1(O)C(=O)c3ccccc3C1(O)O2 (stereo not drawn) [Example 19, 8-sec-Butyl-4b,9b-dihydroxy-4bH-benzo[d]indeno[1,2-b]furan-10(9bH)-one]",134 to 136,8.34,
"COC(=O)c1ccc2c(c1)C1(O)C(=O)c3ccccc3C1(O)O2 (stereo not drawn) [Example 39, Methyl 4b,9b-dihydroxy-10-oxo-9b,10-dihydro-4bH-benzo[d]indeno[1,2-b]furan-8-carboxylate]",220 to 223,45.1,
CC(C)NC(=O)Nc1cccc2c1C(=O)C1(O)c3ccc(C(C)C)cc3OC21O (stereo not drawn) [Example 55],81 to 85,7.49,
"CC(C)c1ccc2c(c1)O[C@@]1(O)c3cc4ccccc4cc3C(=O)[C@@]21O [Example 44, 4b,9b-Dihydroxy-7-isopropyl-1H-cyclopenta[b]naphthalene o[1,2-b]furan-10(9bH)-one]",186 to 189,6.25,
"CC(C)(C)c1ccc2c(c1)C1(O)C(=O)c3ccccc3C1(O)O2 (stereo not drawn) [Example 20, 8-tert-Butyl-4b,9b-dihydroxy-4bH-benzo[d]indeno[1,2-b]furan-10(9bH)-one]",187 to 188,7.93,
"CCCCCCCCCc1ccc2c(c1)C1(O)C(=O)c3ccccc3C1(O)O2 (stereo not drawn) [Example 26, 4b,9b-Dihydroxy-8-nonyl-4bH-benzo[d]indeno[1,2-b]furan-10(9bH)-one]",108 to 110,< 4,
"CC(=O)Nc1cccc2c1C(=O)C1(O)c3ccc(C(C)C)cc3OC21O (stereo not drawn) [Example 48, N-(4b,9b-Dihydroxy-7-isopropyl-10-oxo-9b,10-dihydro-4bH-benzo[d]indeno[1,2-b]furan-1-yl)acetamide]",152 to 154,35,
"CC(=O)Nc1cccc2c1C(=O)C1(NC(C)=O)c3ccc(C(C)C)cc3OC21O (stereo not drawn) [Example 57, N,N′-(4b-Hydroxy-7-isopropyl-10-oxo-9b,10-dihydro-4bH-benzo[d]indeno[1,2-b]furane-1,9b-diyl)diacetamide]",189 to 191,46.7,
"CCN(CC)C(=O)OC12C(=O)c3ccccc3C1(O)Oc1cc(C(C)C)ccc12 (stereo not drawn) [Example 41, 4b-Hydroxy-7-isopropyl-10-oxo-9b,10-dihydro-4bH-benzo[d]indeno[1,2-b]furan-9b-yl diethylcarbamate]",101 to 104,27.1,
"CC(C)c1ccc2c(c1)OC1(OC(=O)/C=C/c3ccccc3)c3ccccc3C(=O)C21OC(=O)/C=C/c1ccccc1 (stereo not drawn) [Example 34, (2E,2′E)-7-Isopropyl-10-oxo-9b,10-dihydro-4bH-benzo[d]indeno[1,2-b]furan-4b,9b-diyl bis(3-phenylacrylate)]",111 to 113,> 50,
"CCC(C)(C)c1ccc2c(c1)C1(O)C(=O)c3ccccc3C1(O)O2 (stereo not drawn) [Example 23, 4b,9b-Dihydroxy-8-tert-pentyl-4bH-benzo[d]indeno[1,2-b]furan-10(9bH)-one]",175 to 176,9.3,
"CC(C)c1ccc2c(c1)OC1(OC(=O)c3ccco3)c3ccccc3C(=O)C21O (stereo not drawn) [Example 36, 9b-Hydroxy-7-isopropyl-10-oxo-9b,10-dihydro-4bH-benzo[d]indeno[1,2-b]furan-4b-yl furane-2-carboxylatefurane-2-carboxylic acid]",116 to 120,9.34,
"COc1ccc2c(c1)C(=O)C1(O)c3ccc(C(C)C)cc3OC21O (stereo not drawn) [Example 32, 4b,9b-Dihydroxy-7-isopropyl-2-methoxy-4b,9b-dihydro-5-oxa-indeno[2,1-a]inden-10-one]",98 to 102,8.1,
"Cc1cc2c(cc1C)C1(O)Oc3cc(C(C)C)ccc3C1(O)C2=O (stereo not drawn) [Example 82, 4b,9b-dihydroxy-7-isopropyl-2,3-dimethyl-4bH-benzo[d]indeno[1,2-b]furan-10(9bH)-one]",138 to 140,1.9,
"CC(=O)O[C@@]12Oc3cc(C(C)C)ccc3[C@]1(OC(C)=O)C(=O)c1c(NS(C)(=O)=O)cccc12 (stereo in doubt) [Example 54, acetic acid 4b-acetoxy-7-isopropyl-1-methanesulfonylamino-10-oxo-4b,10-dihydro-5-oxa-indeno[2,1-a]inden-9b-yl ester]",96 to 100,> 50,
"Cc1ccc2c(c1)OC1(O)c3ccccc3C(=O)C21O (stereo not drawn) [Example 1, 4b,9b-Dihydroxy-7-methyl-4bH-benzo[d]indeno[1,2-b]furan-10(9bH)-one]",145 to 147,> 50,
"CC(C)c1ccc2c(c1)O[C@@]1(O)c3cccc([N+](=O)[O-])c3C(=O)[C@@]21O [Example 80, 4b,9b-Dihydroxy-7-isopropyl-1-nitro-4bH-benzo[d]indeno[1,2-b]furan-10(9bH)-one]",186 to 188,47.5,
